Experimental findings from US20040242665A1, “Hair composition containing a styrylpyrazole compound, and use thereof for stimulating or inducing hair or eyelash growth and/or reducing loss thereof” (SOCIETE L'OREAL S.A., priority 2002, published 2004) are described below.

The target in one assay is T1, 15-PGDH (Homo sapiens, UniProt P15428).
T1 construct: made in house
T1 sequence (P15428 1-266): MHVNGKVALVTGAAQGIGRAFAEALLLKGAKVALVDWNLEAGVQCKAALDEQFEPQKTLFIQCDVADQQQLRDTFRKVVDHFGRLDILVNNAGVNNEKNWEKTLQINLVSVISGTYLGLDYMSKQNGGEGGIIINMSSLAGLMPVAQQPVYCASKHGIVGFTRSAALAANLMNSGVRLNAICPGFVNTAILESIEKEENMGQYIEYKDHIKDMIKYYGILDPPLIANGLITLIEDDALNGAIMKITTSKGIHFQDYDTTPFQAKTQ
Briefly: Test on 15-PGDH (spectrophotometric, 340 nm, PGE2 and NAD). It counts as biochemical. Conditions: for IC50: pH 7.4 Tris buffer, 37° C., 50 μM prostaglandin E2, read-out: Inhibition of 15-PGDH IC50dh. On the procedure:
The enzyme 15-PGDH is obtained as described in patent application FR 02/05067 filed in the name of L'Oreal, as a suspension in a medium adjusted to a concentration of 0.3 mg/ml and then blocked at −80° C. For the purposes of the test, this suspension is thawed and stored in ice.
In parallel, a 100 mM, pH 7.4 Tris buffer containing 0.1 mM of dithiothreitol (D5545, Sigma-Aldrich, L'isle D'Abeau Chesne, BP 701, 38297, Saint Quentin Fallavier), 1.5 mM of P-NAD (N6522, Sigma-Aldrich, L'isle D'Abeau Chesne, BP 701, 38297, Saint Quentin Fallavier), and 50 μM of prostaglandin E2 (P4172, Sigma-Aldrich, L'isle D'Abeau Chesne, BP 701, 38297, Saint Quentin Fallavier) is prepared.
0.965 ml of this buffer (brought to 37° C. beforehand) is introduced into the cuvette of a spectrophotometer (Perkin-Elmer, Lambda 2) thermostatically maintained at 37° C., the measuring wavelength of which is set at 340 nm. 0.035 ml of enzymatic suspension at 37° C. is introduced into the cuvette concomitantly with the recording (corresponding to an increase in the optical density at 340 nm). The maximum reaction rate is recorded.

The target of the next assay is T2, PGF synthase (Homo sapiens, UniProt P42330).
T2 construct: made in house
T2 sequence (P42330 1-323): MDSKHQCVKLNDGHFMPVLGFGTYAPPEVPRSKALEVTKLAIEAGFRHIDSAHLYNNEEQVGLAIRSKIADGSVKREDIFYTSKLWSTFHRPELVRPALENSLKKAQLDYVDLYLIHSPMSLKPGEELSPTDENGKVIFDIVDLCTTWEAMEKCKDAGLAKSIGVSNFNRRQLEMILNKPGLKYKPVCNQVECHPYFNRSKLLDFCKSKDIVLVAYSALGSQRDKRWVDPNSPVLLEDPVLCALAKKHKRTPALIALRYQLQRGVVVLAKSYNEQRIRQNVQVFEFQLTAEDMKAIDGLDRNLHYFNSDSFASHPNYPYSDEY
Nature of the assay: Test on PGF synthase (spectrophotometric, 340 nm, 9,10-phenanthrenequinone and NADPH). To be noted: pH 6.5 Tris buffer, 37° C., 20 μM 9,10-phenanthrenequinone, 100 μM β-NADPH; read-out: Inhibition of PGF synthase IC50fs. Format: biochemical. The method, then:
The enzyme PGFS is obtained as described in document FR-A-02/05067, at a concentration of 0.5 mg/ml, as a suspension in a suitable medium, and blocked at −80° C. For the purposes of the test, this suspension is thawed and stored in ice.
In parallel, a 100 mM, pH 6.5 Tris buffer containing 20 μm of 9,10-phenanthrenequinone* (P2896, Sigma-Aldrich, L'isle D'Abeau Chesne, BP 701, 38297, Saint Quentin Fallavier) and 100 μM of β-NADPH (N1630, Sigma-Aldrich, L'isle D'Abeau Chesne, BP 701, 38297, Saint Quentin Fallavier) is prepared in a brown flask (protected from light).
*A stock solution with a titre of 1 mM is prepared in absolute ethanol and brought to 40° C.; the flask is placed in an ultrasound tank to facilitate the dissolution of the product.
0.950 ml of this buffer (brought to 37° C. beforehand) is introduced into the cuvette of a spectrophotometer (Perkin-Elmer, Lambda 2) thermostatically maintained at 37° C., the measuring wavelength of which is set at 340 nm. 0.05 ml of enzymatic suspension at 37° C. is introduced into the cuvette concomitantly with the recording (corresponding to a reduction in the optical density at 340 nm). The maximum reaction rate is recorded.
The test values (containing compound (I)) are compared with the control value (without compound (I)); the results indicated represent the concentration at which compound (I) inhibits 50% of the enzymatic activity of PGFS, noted as IC50fs.

Turning to `COc1ccccc1/C=C(\C#N)c1nn(-c2ccccc2)c(N)c1C#N` [Compound 9], the IC50 on 15-PGDH stood at 5 µM.

Consider `N#C/C(=C\c1ccccc1Cl)c1nn(-c2ccccc2)c(N)c1C#N` [Compound 7], for which the IC50 is 3 µM on 15-PGDH and more than 50 µM at PGF synthase.

`N#C/C(=C\c1c(Cl)cccc1Cl)c1nn(CCO)c(N)c1C#N` [Compound 1a]: the results for the IC50 on 15-PGDH and on PGF synthase were 3 µM and more than 50 µM, respectively.

With `N#C/C(=C\c1ccccc1)c1nn(-c2ccccc2)c(N)c1C#N` [Compound 8], the “Selectivity (IC50fs/IC50dh ratio)” value on 15-PGDH (15-PGDH relative to PGF synthase) is more than 1.5. The IC50 on 15-PGDH is 50 µM; on PGF synthase, more than 75 µM.

With `N#C/C(=C\c1c(Cl)cccc1Cl)c1nn(-c2ccccc2)c(N)c1C#N` [Compound 6], the IC50 on 15-PGDH is 0.8 µM; at PGF synthase, more than 50 µM.
